This is an account of results in patent publication US9499547B2 (BAYER INTELLECTUAL PROPERTY GMBH, priority 2011, dated 2016).

pIC50: −log10 of the molar value.

Assay [1] addresses T1, human full-length MKNK1 (Homo sapiens (Human), UniProt Q9BUB5, T344D). The assay can be described thus: MKNK1 kinase assay (MKNK1 TR-FRET assay). Type of assay: biochemical. The settings on record: 10 μM ATP final conc.; 15 min preincubation with enzyme. How it is done:
MKNK1-inhibitory activity of compounds of the present invention was quantified employing the MKNK1 TR-FRET assay as described in the following paragraphs.
As substrate for the kinase reaction the biotinylated peptide biotin-Ahx-[…] (C-terminus in amide form) was used which can be purchased e.g. form the company Biosyntan (Berlin-Buch, Germany).
(§1) For the assay 50 nL of a 100 fold concentrated solution of the test compound in DMSO was pipetted into a black low volume 384 well microtiter plate (Greiner Bio-One, Frickenhausen, Germany), 2 μL of a solution of MKNK1 in aqueous assay buffer [50 mM HEPES pH 7.5, 5 mM magnesium chloride, 1.0 mM dithiothreitol, 0.005% (v/v) Nonidet-P40 (Sigma)] was added and the mixture was incubated for 15 min at 22° C. to allow pre-binding of the test compounds to the enzyme before the start of the kinase reaction. Then the kinase reaction was started by the addition of 3 μL of a solution of adenosine-tri-phosphate (ATP, 16.7 μM=>final conc. in the 5 μL assay volume is 10 μM) and substrate (0.1 μM=>final conc. in the 5 μL assay volume is 0.06 μM) in assay buffer and the resulting mixture was incubated for a reaction time of 45 min at 22° C. The concentration of MKNK1 was adjusted depending of the activity of the enzyme lot and was chosen appropriate to have the assay in the linear range, typical concentrations were in the range of 0.05 μg/ml. The reaction was stopped by the addition of 5 μL of a solution of TR-FRET detection reagents (5 nM streptavidine-XL665 [Cisbio Bioassays, Codolet, France] and 1 nM anti-ribosomal protein S6 (pSer236)-antibody from Invitrogen [#44921G] and 1 nM LANCE EU-W1024 labeled ProteinG [Perkin-Elmer, product no. AD0071]) in an aqueous EDTA-solution (100 mM EDTA, 0.1% (w/v) bovine serum albumin in 50 mM HEPES pH 7.5).
(§2) The resulting mixture was incubated for 1 h at 22° C. to allow the formation of complex between the phosphorylated biotinylated peptide and the detection reagents. Subsequently the amount of phosphorylated substrate was evaluated by measurement of the resonance energy transfer from the Eu-chelate to the streptavidine-XL. Therefore, the fluorescence emissions at 620 nm and 665 nm after excitation at 350 nm were measured in a TR-FRET reader, e.g. a Rubystar (BMG Labtechnologies, Offenburg, Germany) or a Viewlux (Perkin-Elmer). The ratio of the emissions at 665 nm and at […] was taken as the measure for the amount of phosphorylated substrate. The data were normalised (enzyme reaction without inhibitor=0% inhibition, all other assay components but no enzyme=100% inhibition).

Assay [2] addresses T1, human full-length MKNK1. The assay can be described thus: MKNK1 kinase high ATP assay (TR-FRET-based). The settings on record: 2 mM ATP final conc.; 15 min preincubation with enzyme. Type of assay: biochemical. As to the method: MKNK1 Kinase High ATP Assay
MKNK1-inhibitory activity at high ATP of compounds of the present invention after their preincubation with MKNK1 was quantified employing the TR-FRET-based MKNK1 high ATP assay as described in the following paragraphs.
As substrate for the kinase reaction the biotinylated peptide biotin-Ahx-[…] (C-terminus in amide form) was used, which can be purchased e.g. from the company Biosyntan (Berlin-Buch, Germany).
as §1, with “3.3 mM=>final” for “16.7 μM=>final”, “2 mM)” for “10 μM)”, “30” for “45”, “0.003 μg/mL.” for “0.05 μg/ml.”
as §2

T1 sequence (Q9BUB5 other isoform, or with tags, fused parts or gaps T344D): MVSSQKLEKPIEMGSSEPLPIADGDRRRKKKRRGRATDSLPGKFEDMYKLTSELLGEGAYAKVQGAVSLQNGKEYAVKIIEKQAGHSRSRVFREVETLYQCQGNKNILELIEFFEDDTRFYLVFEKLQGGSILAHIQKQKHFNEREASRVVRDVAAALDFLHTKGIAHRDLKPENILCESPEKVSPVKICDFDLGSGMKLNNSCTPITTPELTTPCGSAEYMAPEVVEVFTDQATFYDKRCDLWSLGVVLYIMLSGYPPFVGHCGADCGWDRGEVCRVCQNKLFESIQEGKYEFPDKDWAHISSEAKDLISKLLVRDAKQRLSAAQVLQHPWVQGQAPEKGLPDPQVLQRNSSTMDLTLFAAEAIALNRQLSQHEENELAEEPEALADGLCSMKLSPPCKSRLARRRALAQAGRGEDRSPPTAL

With `N[C@H]1C[C@H](Oc2ccc3ncc(-c4cc5c(F)cccc5o4)n3n2)C1` [Example 36, trans-3-{[3-(4-Fluoro-1-benzofuran-2-yl)imidazo[1,2-b]pyridazin-6-yl]oxy}-cyclobutanamine], the pIC50 was 9.00 in assay [1] and 8.70 in assay [2].
As to `N[C@H]1CCC[C@@H]1Oc1ccc2ncc(-c3cc4ccccc4o3)n2n1` [Example 24, (1S,2S)-2-{[3-(1-Benzofuran-2-yl)imidazo[1,2-b]pyridazin-6-yl]oxy}cyclopentanamine], the pIC50 in assay [1] was 8.00; in assay [2], 7.72.
On to `COc1cccc2oc(-c3cnc4ccc(OCCCN)nn34)cc12` [Example 4, 3-{[3-(4-Methoxy-1-benzofuran-2-yl)imidazo[1,2-b]pyridazin-6-yl]oxy}propan-1-amine], for which the pIC50 in assay [1] was 8.30; in assay [2] it was 7.82.
For `NC[C@H](Oc1ccc2ncc(-c3cc4ccccc4o3)n2n1)c1ccccc1` [Example 16, (2R)-2-{[3-(1-Benzofuran-2-yl)imidazo[1,2-b]pyridazin-6-yl]oxy}-2-phenylethanamine], the negative logarithm of the IC50 (pIC50) in assay [1] was 7.59; in assay [2] it was 7.31.
For `NCC1(COc2ccc3ncc(-c4cc5ccccc5o4)n3n2)COC1` [Example 44, 1-[3-({[3-(1-Benzofuran-2-yl)imidazo[1,2-b]pyridazin-6-yl]oxy}methyl)oxetan-3-yl]methanamine], in that order: 7.28 and 7.20.
The matching figures for `Cc1ccc2oc(-c3cnc4ccc(O[C@H](C)CN)nn34)cc2c1` [Example 49, (2R)-2-{[3-(5-Methyl-1-benzofuran-2-yl)imidazo[1,2-b]pyridazin-6-yl]oxy}-propan-1-amine]: 7.06 and 6.81.
For `C[C@H](CN)Oc1ccc2ncc(-c3cc4cc(Cl)ccc4o3)n2n1` [Example 15, (2R)-2-{[3-(5-Chloro-1-benzofuran-2-yl)imidazo[1,2-b]pyridazin-6-yl]oxy}-propan-1-amine], in that order: 7.44 and 6.71.
For the molecule `C[C@@H](N)COc1ccc2ncc(-c3cc4ccccc4o3)n2n1` [Example 42, (2R)-1-{[3-(1-Benzofuran-2-yl)imidazo[1,2-b]pyridazin-6-yl]oxy}propan-2-amine], the negative-log IC50 (pIC50) is 7.82 in assay [1] and 7.37 in assay [2].
Turning to `NCC(Oc1ccc2ncc(-c3cc4ccccc4o3)n2n1)c1ccccn1` (stereo not shown) [Example 57, 2-{[3-(1-benzofuran-2-yl)-imidazo-[1,2-b]-pyridazin-6-yl]oxy}-2-(pyridin-2-yl)-ethanamine], the negative logarithm of the IC50 (pIC50) in assay [1] was 7.03.
In the case of `N[C@@H]1CCCC[C@H]1Oc1ccc2ncc(-c3cc4ccccc4o3)n2n1` [Example 23, (1R,2R)-2-{[3-(1-Benzofuran-2-yl)imidazo[1,2-b]pyridazin-6-yl]oxy}cyclohexanamine], the negative-log IC50 (pIC50) in assay [2] is 7.74.
As for `NCC(Oc1ccc2ncc(-c3cc4ccccc4o3)n2n1)c1ccc(F)cc1` (stereo not shown) [Example 56, 2-{[3-(1-benzofuran-2-yl)-imidazo-[1,2-b]-pyridazin-6-yl]oxy}-2-(4-fluoro-phenyl)-ethanamine], in assay [1], the negative-log IC50 (pIC50) was 7.40.
On the same count and under the same terms, the value for `NCCC(Oc1ccc2ncc(-c3cc4ccccc4o3)n2n1)c1ccc(F)cc1` (stereo not shown) [Example 64] was 7.24.
As for `NCC(CN1CCOCC1)Oc1ccc2ncc(-c3cc4ccccc4o3)n2n1` (stereo not shown) [Example 31, 2-{[3-(1-Benzofuran-2-yl)imidazo[1,2-b]pyridazin-6-yl]oxy}-3-(morpholin-4-yl)-propan-1-amine], in assay [2], the negative-log IC50 (pIC50) was 7.11.
Same read-out and setting: the value for `NC1(COc2ccc3ncc(-c4cc5ccccc5o4)n3n2)CCC1` [Example 27, 1-({[3-(1-Benzofuran-2-yl)imidazo[1,2-b]pyridazin-6-yl]oxy}methyl)cyclobutanamine] was 7.54; that for `NC(COc1ccc2ncc(-c3cc4ccccc4o3)n2n1)C1CCOCC1` (stereo not shown) [Example 32, 2-{[3-(1-Benzofuran-2-yl)imidazo[1,2-b]pyridazin-6-yl]oxy}-1-(tetrahydro-2H-pyran-4-yl)ethanamine] was 7.10.
On to `NCC(Oc1ccc2ncc(-c3cc4ccccc4o3)n2n1)c1cccc(C(F)(F)F)c1` (stereo not shown) [Example 59, 2-{[3-(1-benzofuran-2-yl)-imidazo-[1,2-b]-pyridazin-6-yl]oxy}-2-[3-(tri-fluoro-methyl)-phenyl]-ethanamine], for which the pIC50 in assay [1] was 7.43.
`NCC(Cc1ccc(F)cc1)Oc1ccc2ncc(-c3cc4ccccc4o3)n2n1` (stereo not shown) [Example 53, 2-{[3-(1-Benzofuran-2-yl)imidazo[1,2-b]pyridazin-6-yl]oxy}-3-(4-fluorophenyl)-propan-1-amine] showed a negative logarithm of the IC50 (pIC50) in assay [2] of 7.34.
As to `N[C@H](COc1ccc2ncc(-c3cc4ccccc4o3)n2n1)c1ccc(F)cc1` [Example 61, (1S)-2-{[3-(1-benzofuran-2-yl)imidazo[1,2-b]pyridazin-6-yl]oxy}-1-(4-fluorophenyl)ethanamine], in assay [1], the pIC50 was 7.54.
`NC(COc1ccc2ncc(-c3cc4ccccc4o3)n2n1)c1cccnc1` (stereo not shown) [Example 63, 2-{[3-(1-benzofuran-2-yl)imidazo[1,2-b]pyridazin-6-yl]oxy}-1-(pyridin-3-yl)ethanamine] had a pIC50 in assay [1] of 7.27.
The same measure, in the same setting: the value for `N[C@H](COc1ccc2ncc(-c3cc4ccccc4o3)n2n1)c1ccc(Cl)cc1` [Example 62, (1S)-2-{[3-(1-benzofuran-2-yl)imidazo[1,2-b]pyridazin-6-yl]oxy}-1-(4-chlorophenyl)ethanamine] was 7.51.
The molecule `C=CCCC(CN)Oc1ccc2ncc(-c3cc4ccccc4o3)n2n1` (stereo not shown) [Example 28, 2-{[3-(1-Benzofuran-2-yl)imidazo[1,2-b]pyridazin-6-yl]oxy}hex-5-en-1-amine] gave a negative-log IC50 (pIC50) in assay [2] of 7.35.
Same read-out and setting: the same measure for `NCCOCCOc1ccc2ncc(-c3cc4ccccc4o3)n2n1` [Example 21, 2-(2-{[3-(1-Benzofuran-2-yl)imidazo[1,2-b]pyridazin-6-yl]oxy}ethoxy)ethanamine]: 7.85; for `NCC(Cc1ccncc1)Oc1ccc2ncc(-c3cc4ccccc4o3)n2n1` (stereo not shown) [Example 54, 2-{[3-(1-Benzofuran-2-yl)imidazo[1,2-b]pyridazin-6-yl]oxy}-3-(pyridin-4-yl)-propan-1-amine]: 7.72.
As to `NCC(Oc1ccc2ncc(-c3cc4ccccc4o3)n2n1)c1ccc(F)cc1F` (stereo not shown) [Example 60, 2-{[3-(1-benzofuran-2-yl)-imidazo-[1,2-b]-pyridazin-6-yl]oxy}-2-(2,4-di-fluoro-phenyl)-ethanamine], in assay [1], the negative-log IC50 (pIC50) was 7.41.
On the same count and under the same terms, the same measure for `NC[C@H](Oc1ccc2ncc(-c3cc4ccccc4o3)n2n1)c1cccnc1` [Example 55, (2R)-2-{[3-(1-benzofuran-2-yl)imidazo[1,2-b]pyridazin-6-yl]oxy}-2-(pyridin-3-yl)ethanamine]: 7.80; for `CC(C)Oc1cccc(C(CN)Oc2ccc3ncc(-c4cc5ccccc5o4)n3n2)c1` (stereo not shown) [Example 58, 2-{[3-(1-benzofuran-2-yl)-imidazo-[1,2-b]-pyridazin-6-yl]oxy}-2-(3-iso-propoxy-phenyl)-ethanamine]: 7.70.

As a reminder, the pIC50 is the IC50 on a negative log10 scale, so that one unit is a factor of ten.
